Data from PubChem BioAssay AID2060620 (Molecular Pharmacology Branch, DTP, NCI, 2025).
“And” between values parts separate entries of the source, which are not always exact repeats. Equal entries are not always repeated. Each block holds one compound with its values, some of them ahead of it.

Test system: 328373-195-R-J1-PDC complex spheroids, viability % test/control
Assay: Anticancer human tumor 328373-195-R-J1-PDC patient-derived head and neck squamous carcinoma cell line growth inhibition [CLK]
Settings: for viability, T/C: stronger effect = lower value
Method in brief: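 Multi-cell-type spheroids combined patient-derived tumor cells with HUVEC endothelial cells and human mesenchymal stem cells. Paired agents were dosed in half-log steps down from about clinical Cmax, or from 10 microM where Cmax was unknown.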

[1] = curve of first compound, second compound 0.0316 µM
[2] = curve of first compound, second compound 0.1 µM
[3] = curve of first compound, second compound 0.316 µM
[4] = curve of first compound, second compound 1 µM
[5] = curve of first compound, second compound 3.16 µM
[6] = curve of first compound, second compound 10 µM
[7] = second compound 0.0316 µM, first compound 0.0316 µM
[8] = second compound 0.0316 µM, first compound 0.1 µM
[9] = second compound 0.0316 µM, first compound 0.316 µM
[10] = second compound 0.0316 µM, first compound 1 µM
[11] = second compound 0.0316 µM, first compound 3.16 µM
[12] = second compound 0.0316 µM, first compound 10 µM
[13] = second compound 0.1 µM, first compound 0.0316 µM
[14] = second compound 0.1 µM, first compound 0.1 µM
[15] = second compound 0.1 µM, first compound 0.316 µM
[16] = second compound 0.1 µM, first compound 1 µM
[17] = second compound 0.1 µM, first compound 3.16 µM
[18] = second compound 0.1 µM, first compound 10 µM
[19] = second compound 0.316 µM, first compound 0.0316 µM
[20] = second compound 0.316 µM, first compound 0.1 µM
[21] = second compound 0.316 µM, first compound 0.316 µM
[22] = second compound 0.316 µM, first compound 1 µM
[23] = second compound 0.316 µM, first compound 3.16 µM
[24] = second compound 0.316 µM, first compound 10 µM
[25] = second compound 1 µM, first compound 0.0316 µM
[26] = second compound 1 µM, first compound 0.1 µM
[27] = second compound 1 µM, first compound 0.316 µM
[28] = second compound 1 µM, first compound 1 µM
[29] = second compound 1 µM, first compound 3.16 µM
[30] = second compound 1 µM, first compound 10 µM
[31] = second compound 3.16 µM, first compound 0.0316 µM
[32] = second compound 3.16 µM, first compound 0.1 µM
[33] = second compound 3.16 µM, first compound 0.316 µM
[34] = second compound 3.16 µM, first compound 1 µM
[35] = second compound 3.16 µM, first compound 3.16 µM
[36] = second compound 3.16 µM, first compound 10 µM
[37] = second compound 10 µM, first compound 0.0316 µM
[38] = second compound 10 µM, first compound 0.1 µM
[39] = second compound 10 µM, first compound 0.316 µM
[40] = second compound 10 µM, first compound 1 µM
[41] = second compound 10 µM, first compound 3.16 µM
[42] = second compound 10 µM, first compound 10 µM
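Further: spheroids exposed to the agents for 7 days.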

IC50 [1]: 0.00143 µM | IC50 [2]: < 0.000949 µM | IC50 [3]: < 0.000949 µM | IC50 [4]: < 0.000949 µM | IC50 [5]: < 0.000949 µM | IC50 [6]: < 0.000949 µM
SMILES: CC(C)CC(NC(=O)C(Cc1ccccc1)NC(=O)c1cnccn1)B(O)O (stereo not given) + CNC(=O)c1ccc(Nc2nc(OC3CCCC3)c3c(-c4ccc5nc(C)oc5c4)c[nH]c3n2)c(OC)c1
viability, T/C (second compound 0.0316 µM, first compound 0.000949 µM): 75.7% | viability, T/C (second compound 0.0316 µM, first compound 0.003 µM): 3.15% | viability, T/C (second compound 0.0316 µM, first compound 0.00949 µM): 0.27% | viability, T/C (second compound 0.0316 µM, first compound 0.03 µM): 0.18% | viability, T/C (second compound 0.0316 µM, first compound 0.0949 µM): 0.2% | viability, T/C (second compound 0.0316 µM, first compound 0.3 µM): 0.32% | viability, T/C (second compound 0.1 µM, first compound 0.000949 µM): 12.8% | viability, T/C (second compound 0.1 µM, first compound 0.003 µM): 4.91% | viability, T/C (second compound 0.1 µM, first compound 0.00949 µM): 0.98% | viability, T/C (second compound 0.1 µM, first compound 0.03 µM): 0.14% | viability, T/C (second compound 0.1 µM, first compound 0.0949 µM): 0.16% | viability, T/C (second compound 0.1 µM, first compound 0.3 µM): 1.45% | viability, T/C (second compound 0.316 µM, first compound 0.000949 µM): 10.9% | viability, T/C (second compound 0.316 µM, first compound 0.003 µM): 5.82% | viability, T/C (second compound 0.316 µM, first compound 0.00949 µM): 0.17% | viability, T/C (second compound 0.316 µM, first compound 0.03 µM): 0.11% | viability, T/C (second compound 0.316 µM, first compound 0.0949 µM): 0.14% | viability, T/C (second compound 0.316 µM, first compound 0.3 µM): 0.13% | viability, T/C (second compound 1 µM, first compound 0.000949 µM): 9.47% | viability, T/C (second compound 1 µM, first compound 0.003 µM): 4.37% | viability, T/C (second compound 1 µM, first compound 0.00949 µM): 0.14% | viability, T/C (second compound 1 µM, first compound 0.03 µM): 0.08% | viability, T/C (second compound 1 µM, first compound 0.0949 µM): 0.12% | viability, T/C (second compound 1 µM, first compound 0.3 µM): 1.52% | viability, T/C (second compound 3.16 µM, first compound 0.000949 µM): 12.4% | viability, T/C (second compound 3.16 µM, first compound 0.003 µM): 3.42% | viability, T/C (second compound 3.16 µM, first compound 0.00949 µM): 0.15% | viability, T/C (second compound 3.16 µM, first compound 0.03 µM): 0.09% | viability, T/C (second compound 3.16 µM, first compound 0.0949 µM): 0.24% | viability, T/C (second compound 3.16 µM, first compound 0.3 µM): 0.19% | viability, T/C (second compound 10 µM, first compound 0.000949 µM): 14.2% | viability, T/C (second compound 10 µM, first compound 0.003 µM): 2.54% | viability, T/C (second compound 10 µM, first compound 0.00949 µM): 0.2% | viability, T/C (second compound 10 µM, first compound 0.03 µM): 0.64% | viability, T/C (second compound 10 µM, first compound 0.0949 µM): 0.3% | viability, T/C (second compound 10 µM, first compound 0.3 µM): 0.6%

IC50 (curve of compound): > 10 µM
SMILES: O=C(c1cc(Cc2n[nH]c(=O)c3ccccc23)ccc1F)N1CCN(C(=O)C2CC2)CC1
viability, T/C (compound 0.0316 µM): 99.6% and 98.6% | viability, T/C (compound 0.1 µM): 94.2% and 88% | viability, T/C (compound 0.316 µM): 91.3% and 90.8% | viability, T/C (compound 1 µM): 87.9% and 100% | viability, T/C (compound 3.16 µM): 93.2% and 101% | viability, T/C (compound 10 µM): 73.2% and 66.8%

SMILES: O=c1[nH]cc(F)c(=O)[nH]1 + CN1CCN(c2cc(C(=O)Nc3cc4cc(-c5cnn(C)c5)ccc4cn3)ccn2)CC1
IC50 [1]: 0.0584 µM | IC50 [2]: 0.0621 µM | IC50 [3]: < 0.0316 µM | IC50 [4]: < 0.0316 µM | IC50 [5]: < 0.0316 µM | IC50 [6]: < 0.0316 µM | viability, T/C [7]: 76.7% | viability, T/C [8]: 26.6% | viability, T/C [9]: 13.9% | viability, T/C [10]: 9.49% | viability, T/C [11]: 10.6% | viability, T/C [12]: 13.6% | viability, T/C [13]: 74.7% | viability, T/C [14]: 32.6% | viability, T/C [15]: 12.5% | viability, T/C [16]: 10.6% | viability, T/C [17]: 10.2% | viability, T/C [18]: 16.8% | viability, T/C [19]: 25.9% | viability, T/C [20]: 14.3% | viability, T/C [21]: 14.6% | viability, T/C [22]: 7.98% | viability, T/C [23]: 6.74% | viability, T/C [24]: 5.92% | viability, T/C [25]: 0.13% | viability, T/C [26]: 4.38% | viability, T/C [27]: 0.56% | viability, T/C [28]: 0.05% | viability, T/C [29]: 2.73% | viability, T/C [30]: 0.78% | viability, T/C [31]: 0.03% | viability, T/C [32]: 3.69% | viability, T/C [33]: 4.78% | viability, T/C [34]: 0.03% | viability, T/C [35]: 0.16% | viability, T/C [36]: 0.08% | viability, T/C [37]: 0.03% | viability, T/C [38]: 0.64% | viability, T/C [39]: 2.65% | viability, T/C [40]: 0.06% | viability, T/C [41]: 4.08% | viability, T/C [42]: 1.3%

SMILES: COc1ccc([C@@H](O)c2cc(-c3ncnc4cc(N5CCOCC5)ccc34)c(F)cc2Cl)nn1 + CN1CCN(c2cc(C(=O)Nc3cc4cc(-c5cnn(C)c5)ccc4cn3)ccn2)CC1
IC50 [1]: > 10 µM | IC50 [2]: 8.16 µM | IC50 [3]: < 0.0316 µM | IC50 [4]: < 0.0316 µM | IC50 [5]: < 0.0316 µM | IC50 [6]: < 0.0316 µM | viability, T/C [7]: 91.6% | viability, T/C [8]: 103% | viability, T/C [9]: 91.1% | viability, T/C [10]: 96.7% | viability, T/C [11]: 71.7% | viability, T/C [12]: 51.5% | viability, T/C [13]: 73.2% | viability, T/C [14]: 87.5% | viability, T/C [15]: 73% | viability, T/C [16]: 96.7% | viability, T/C [17]: 71.5% | viability, T/C [18]: 45.4% | viability, T/C [19]: 21% | viability, T/C [20]: 25.2% | viability, T/C [21]: 20.6% | viability, T/C [22]: 17.7% | viability, T/C [23]: 21.5% | viability, T/C [24]: 22.5% | viability, T/C [25]: 0.11% | viability, T/C [26]: 2.93% | viability, T/C [27]: 2.16% | viability, T/C [28]: 2.41% | viability, T/C [29]: 1.4% | viability, T/C [30]: 2.54% | viability, T/C [31]: 2.66% | viability, T/C [32]: 0.1% | viability, T/C [33]: 0.14% | viability, T/C [34]: 0.11% | viability, T/C [35]: 3.57% | viability, T/C [36]: 2.6% | viability, T/C [37]: 1.28% | viability, T/C [38]: 1.19% | viability, T/C [39]: 0.19% | viability, T/C [40]: 0.13% | viability, T/C [41]: 0.17% | viability, T/C [42]: 1.61%

IC50 [1]: > 10 µM | IC50 [2]: < 0.0316 µM | IC50 [3]: < 0.0316 µM | IC50 [4]: < 0.0316 µM | IC50 [5]: < 0.0316 µM | IC50 [6]: < 0.0316 µM
SMILES: CCCS(=O)(=O)Nc1ccc(F)c(C(=O)c2c[nH]c3ncc(-c4ccc(Cl)cc4)cc23)c1F + CNC(=O)c1ccc(Nc2nc(OC3CCCC3)c3c(-c4ccc5nc(C)oc5c4)c[nH]c3n2)c(OC)c1
viability, T/C [7]: 61.7% | viability, T/C [8]: 59.5% | viability, T/C [9]: 62.4% | viability, T/C [10]: 66.1% | viability, T/C [11]: 56.8% | viability, T/C [12]: 43.3% | viability, T/C [13]: 11.7% | viability, T/C [14]: 10.9% | viability, T/C [15]: 12% | viability, T/C [16]: 15.7% | viability, T/C [17]: 13.9% | viability, T/C [18]: 15.6% | viability, T/C [19]: 10.2% | viability, T/C [20]: 11.3% | viability, T/C [21]: 11% | viability, T/C [22]: 12.2% | viability, T/C [23]: 10.6% | viability, T/C [24]: 13.5% | viability, T/C [25]: 10.9% | viability, T/C [26]: 10.5% | viability, T/C [27]: 11.3% | viability, T/C [28]: 10.7% | viability, T/C [29]: 11.1% | viability, T/C [30]: 15.2% | viability, T/C [31]: 10.8% | viability, T/C [32]: 11.3% | viability, T/C [33]: 10.3% | viability, T/C [34]: 11.4% | viability, T/C [35]: 12.7% | viability, T/C [36]: 15.8% | viability, T/C [37]: 13.8% | viability, T/C [38]: 11.1% | viability, T/C [39]: 11.2% | viability, T/C [40]: 14.1% | viability, T/C [41]: 16.6% | viability, T/C [42]: 16.4%
